Columns and labels:
CNS disease = test: Treatment of a subject suffering from CNS disease; assay type: in vivo; conditions: orally or parenterally; after few days
Procedure: A subject suffering from CNS disease is treated with a therapeutically effective amount of compound of formula
(§1) where the compound is administered orally or parenterally.

solid tumor colon cancer = test: Treatment of a subject suffering from solid tumor colon cancer; assay type: in vivo; conditions: orally or parenterally; after few days
Procedure: A subject suffering from solid tumor colon cancer is treated with a therapeutically effective amount of compound of formula
as §1

[1] = target: T1, PARP-1 activity of Jurkat cell nuclei (Homo sapiens, UniProt P09874); test: Effect of ATP on the PARP-1 activity of Jurkat cell nuclei; assay type: biochemical; conditions: 1 mM ATP; isolated Jurkat cell nuclei; FIG. 2
T1 construct: endogenous in cells; host or cells: Jurkat cell nuclei
T1 sequence (P09874 whole entry): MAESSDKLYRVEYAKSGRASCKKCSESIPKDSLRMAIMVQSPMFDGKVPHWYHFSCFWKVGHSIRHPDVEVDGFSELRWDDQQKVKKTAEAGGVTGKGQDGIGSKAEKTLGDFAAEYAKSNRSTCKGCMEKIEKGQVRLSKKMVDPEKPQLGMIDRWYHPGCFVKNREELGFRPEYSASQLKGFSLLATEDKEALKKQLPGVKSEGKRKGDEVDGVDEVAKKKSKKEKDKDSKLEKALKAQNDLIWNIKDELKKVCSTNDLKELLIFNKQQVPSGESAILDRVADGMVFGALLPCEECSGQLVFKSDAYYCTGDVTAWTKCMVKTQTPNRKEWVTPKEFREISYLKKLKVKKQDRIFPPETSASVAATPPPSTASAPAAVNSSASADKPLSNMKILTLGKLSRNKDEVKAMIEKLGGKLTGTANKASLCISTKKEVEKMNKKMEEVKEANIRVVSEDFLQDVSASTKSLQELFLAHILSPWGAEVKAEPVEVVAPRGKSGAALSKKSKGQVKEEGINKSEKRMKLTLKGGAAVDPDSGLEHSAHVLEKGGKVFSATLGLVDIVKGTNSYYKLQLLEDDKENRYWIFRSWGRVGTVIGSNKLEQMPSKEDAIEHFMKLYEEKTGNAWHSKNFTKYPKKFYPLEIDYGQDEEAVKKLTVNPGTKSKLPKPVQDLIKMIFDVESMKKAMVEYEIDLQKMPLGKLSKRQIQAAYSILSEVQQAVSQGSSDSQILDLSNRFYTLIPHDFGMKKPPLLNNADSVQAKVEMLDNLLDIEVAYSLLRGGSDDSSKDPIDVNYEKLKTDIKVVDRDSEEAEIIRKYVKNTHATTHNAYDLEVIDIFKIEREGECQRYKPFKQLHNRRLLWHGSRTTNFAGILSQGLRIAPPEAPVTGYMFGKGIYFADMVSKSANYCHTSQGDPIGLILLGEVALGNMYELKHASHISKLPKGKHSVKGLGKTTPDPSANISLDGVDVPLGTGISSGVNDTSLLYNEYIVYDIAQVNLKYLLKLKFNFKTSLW
Procedure: Poly(ADP-ribose)glycohydrolase (PARG) is purchased from Biomol or Alexis Co, which enzymes are equal in performance. Jurkat cells are cultured as reported (Buday et al. (1996) J Biol Chem 271:6159-6163) and nuclei are prepared by a published method (Smirnova et al. (2000) J Biol Chem 275:9377-9384). Enzymatic assays for PARP-1 are performed as published (deMurcia (2000) From DNA-damage and Stress Signalling to Cell Death: Poly ADP-ribosylation Reactions). PARG activity is analyzed with polyADP-ribosylated PARP-1 as substrate, containing long chains synthesized with spermine as cofactor (Kun et al. (2004) Biochemistry 43:210-216), or short chains where the cofactor is histone H1. The polyADP-ribose is labeled either with 3H or by biotinylated-NAD. PARG activity is quantitatively measured either by assaying the liberated 3H-ADP-ribose by TLC (Kirsten et al. (1991) Exp Cell Res 194:1-8) (chromatography carried out on PEI-cellulose sheets with 0.9 M acetic acid and 0.3 M LiCl as solvent) or by immunoassay of the remaining biotinylated (ADP-ribose)n (Bakondi et al. (2004) Exp Dermatol 13:170-178). All other reagents are of highest analytical purity. […] After separating the proteins on a 8% SDS-PAGE gel, the nitrocellulose-blotted, labeled proteins are detected by incubating with streptavidine-HPO complex (1 μg/ml) and by fluorography. Triplicate results are expressed as densitometric units.

[2] = target: T2, PARP-1 arginine-138 mutant (isoleucine, Zn2+ finger 2) (Homo sapiens, UniProt P09874, R138I); test: Enzymatic activity of arginine-138 (R138I) mutant PARP-1 with ATP; assay type: biochemical; conditions: arginine-138 mutated to isoleucine in Zn2+ finger 2; FIG. 1
T2 construct: made in house; host or cells: Sf9 (baculovirus)
T2 sequence (P09874 whole entry R138I): as the sequence (P09874 whole entry) above, with R138I counted along it
Excerpt: (§2) PARP-1 is purified from calf thymus as reported earlier (Molinet et al. (1993) EMBO J. 12:2109-2117). Alternatively recombinant PARP-1 is isolated from Sodoptera Fugiperda (Sf9) cells infected with recombinant baculovirus, expressing the human PARP-1 gene, constructed according to the instructions of Pharmingen. The cDNA of the amino acid exchange mutant R34G and R138 il of PARP-1 is created by the mega primer method (Kannann et al. (1989) Nucl Acids Res 17:5404). The mutated gene is cloned into the transfer vector pV 1392 and the recombinant virus is generated by the Baculogold technology of Pharmigen. The mutated proteins are expressed in Sf9 cells, purified and assayed as reported (Huang et al. (2004) Biochemistry 43:217-223; Kirsten et al. (2004) Methods in Molecular Biology 287, Epigenetics Protocols 137-149).
(§3) Assays are carried out as described (Kun et al. (2004) Biochemistry, 43:210-216) in triplicate (200 μM 3H labeled NAD+, 28 dpm/pmol, 0.5 pmol PARP-1, 3 mM spermine, pH 7.3 t=7.5 min). Identical results are obtained when ATP is replaced by its non-hydrolysable analog (Kun et al. (2004) Biochemistry, 43:210-216).

[3] = target: T1, PARP-1 activity of Jurkat cell nuclei; test: Effect of BCNU on the ATP sensitivity of PARP-1 activity of Jurkat cell nuclei; assay type: biochemical; conditions: nuclei pre-incubated with 400 nM BCNU for 30 minutes; FIG. 3
Procedure: Nuclei equivalent to 2×10^5 Jurkat cells are pre incubated in the presence of various concentrations of ATP. Then PARP activities are assayed by admixing biotinylated-NAD (5 μM final conc.) and incubating for ten minutes. After separating the proteins on a 8% SDS-PAGE gel, the nitrocellulose-blotted, labeled proteins are detected by incubating with streptavidine-HPO complex (1 μg/ml) and by fluorography. Triplicate results are expressed as densitometric units. Experiments in triplicate are carried out as described in FIG. 2, with the exception that pre incubation is done with 400 nM of BCNU for 30 minutes.

[4] = target: T3, PARG activity of Jurkat cell nuclear extract (Homo sapiens, UniProt Q86W56); test: Effect of ATP on the glycohydrolase activity of Jurkat cell nuclear extract; assay type: biochemical; conditions: 8 mM ATP; polyADP-ribosylated PARP-1 with long polymers (50 ADP-ribose units); FIG. 4
T3 construct: endogenous in cells; host or cells: Jurkat cell nuclear extract
T3 sequence (Q86W56 whole entry): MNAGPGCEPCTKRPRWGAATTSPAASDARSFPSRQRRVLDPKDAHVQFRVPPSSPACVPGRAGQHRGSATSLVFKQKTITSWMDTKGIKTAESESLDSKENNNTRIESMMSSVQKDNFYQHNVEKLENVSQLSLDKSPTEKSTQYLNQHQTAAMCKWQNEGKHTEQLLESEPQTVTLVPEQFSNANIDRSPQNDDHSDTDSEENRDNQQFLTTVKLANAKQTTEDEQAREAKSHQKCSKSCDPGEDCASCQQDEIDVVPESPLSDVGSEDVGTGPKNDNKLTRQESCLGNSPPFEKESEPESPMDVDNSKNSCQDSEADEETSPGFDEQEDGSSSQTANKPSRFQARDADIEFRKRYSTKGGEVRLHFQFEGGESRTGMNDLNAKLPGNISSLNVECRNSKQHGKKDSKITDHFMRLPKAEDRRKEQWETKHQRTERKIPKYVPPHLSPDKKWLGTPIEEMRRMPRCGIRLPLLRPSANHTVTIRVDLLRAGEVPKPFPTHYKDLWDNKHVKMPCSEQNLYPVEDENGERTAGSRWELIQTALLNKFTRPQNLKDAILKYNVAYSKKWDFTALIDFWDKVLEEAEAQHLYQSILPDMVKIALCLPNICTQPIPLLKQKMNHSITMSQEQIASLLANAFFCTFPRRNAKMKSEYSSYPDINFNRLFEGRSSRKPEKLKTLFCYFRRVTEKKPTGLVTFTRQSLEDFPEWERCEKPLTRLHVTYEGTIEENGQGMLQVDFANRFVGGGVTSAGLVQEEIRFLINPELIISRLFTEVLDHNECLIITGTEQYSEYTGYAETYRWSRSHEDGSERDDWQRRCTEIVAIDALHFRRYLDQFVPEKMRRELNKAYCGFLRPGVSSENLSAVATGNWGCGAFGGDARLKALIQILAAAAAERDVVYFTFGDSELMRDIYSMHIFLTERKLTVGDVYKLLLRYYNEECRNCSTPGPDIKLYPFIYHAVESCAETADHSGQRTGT
Procedure: Poly(ADP-ribose)glycohydrolase (PARG) is purchased from Biomol or Alexis Co, which enzymes are equal in performance. Jurkat cells are cultured as reported (Buday et al. (1996) J Biol Chem 271:6159-6163) and nuclei are prepared by a published method (Smirnova et al. (2000) J Biol Chem 275:9377-9384). Enzymatic assays for PARP-1 are performed as published (deMurcia (2000) From DNA-damage and Stress Signalling to Cell Death: Poly ADP-ribosylation Reactions). PARG activity is analyzed with polyADP-ribosylated PARP-1 as substrate, containing long chains synthesized with spermine as cofactor (Kun et al. (2004) Biochemistry 43:210-216), or short chains where the cofactor is histone H1. The polyADP-ribose is labeled either with 3H or by biotinylated-NAD. PARG activity is quantitatively measured either by assaying the liberated 3H-ADP-ribose by TLC (Kirsten et al. (1991) Exp Cell Res 194:1-8) (chromatography carried out on PEI-cellulose sheets with 0.9 M acetic acid and 0.3 M LiCl as solvent) or by immunoassay of the remaining biotinylated (ADP-ribose)n (Bakondi et al. (2004) Exp Dermatol 13:170-178). All other reagents are of highest analytical purity. Poly(ADP-ribosylated)-PARP-1 (2 μg protein is incubated with 50 μM of biotinylated-NAD as described above) and is attached to the walls of 96-well plates. ([…] et al. (1989) Nucl. Acids Res. 17:5404). […]

purified PARG = test: ATP sensitivity of purified PARG (PAR chain length, substrate concentration); assay type: biochemical; conditions: 45 minutes
Procedure: Poly(ADP-ribose)glycohydrolase (PARG) is purchased from Biomol or Alexis Co, which enzymes are equal in performance. Jurkat cells are cultured as reported (Buday et al. (1996) J Biol Chem 271:6159-6163) and nuclei are prepared by a published method (Smirnova et al. (2000) J Biol Chem 275:9377-9384). Enzymatic assays for PARP-1 are performed as published (deMurcia (2000) From DNA-damage and Stress Signalling to Cell Death: Poly ADP-ribosylation Reactions). PARG activity is analyzed with polyADP-ribosylated PARP-1 as substrate, containing long chains synthesized with spermine as cofactor (Kun et al. (2004) Biochemistry 43:210-216), or short chains where the cofactor is histone H1. The polyADP-ribose is labeled either with 3H or by biotinylated-NAD. PARG activity is quantitatively measured either by assaying the liberated 3H-ADP-ribose by TLC (Kirsten et al. (1991) Exp Cell Res 194:1-8) (chromatography carried out on PEI-cellulose sheets with 0.9 M acetic acid and 0.3 M LiCl as solvent) or by immunoassay of the remaining biotinylated (ADP-ribose)n (Bakondi et al. (2004) Exp Dermatol 13:170-178). All other reagents are of highest analytical purity. Short (Δ-Δ)- or long ([…]-[…])-chain PAR-PARP molecules are prepared as described in the methods and attached to the surface of assay wells. Purified PARG (15 mU/assay) is added to the wells in the presence of various concentrations of ATP and incubated for 45 minutes. The attached amount of polymers is determined in triplicate experiments (zero minute values for short chains were 0.5 OD, and 1.8 OD for long chain polymers). PARG (15 mU/assay) is incubated with various concentrations of 32P-PAR (long chain polymer) in the presence or absence of 6 mM of ATP for 45 minutes and the amount of liberated 32P-ADP-ribose is determined by TLC and liquid scintillation of the cut out portions of the plate located by autoradiography. Experiments are performed in triplicate.

[5] = target: T4, PARP-1 arginine-34 mutant (R34G, Zn2+ finger 1) (Homo sapiens, UniProt P09874, R34G); test: Enzymatic activity of arginine-34 (R34G) mutant PARP-1 with ATP; assay type: biochemical; conditions: arginine-34 replaced by glycine in Zn2+ finger 1; 200 μM NAD+, 3 mM spermine, pH 7.3; FIG. 1
T4 construct: made in house; host or cells: Sf9 (baculovirus)
T4 sequence (P09874 whole entry R34G): as the sequence (P09874 whole entry) above, with R34G counted along it
Excerpt: as §2, §3

inflammation = test: Treatment of a subject suffering from inflammation; assay type: in vivo; conditions: orally or parenterally; after few days
Procedure: A subject suffering from inflammation is treated with a therapeutically effective amount of compound of formula
as §1

O=c1ccc2c(I)c(O)ccc2o1 [drawing 26]
symptoms of CNS disease (CNS disease): markedly reduced

O=c1ccc2c(I)c(O)ccc2o1 [drawing 14]
symptoms of the cancer (solid tumor colon cancer): markedly reduced

Nc1ncnc2c1ncn2[C@@H]1O[C@H](COP(=O)(O)OP(=O)(O)OP(=O)(O)O)[C@@H](O)[C@H]1O [ATP]
inhibition of PARP-1 activity in nuclei [1]: 80% | effect of the mutation on the inhibitory action of ATP on PARP-1 [2]: negligible effect | response to DNA damage by BCNU as assayed by PARP-1 activity, with externally added ATP [3]: completely removed | effect on PARG activity (decay of long PAR polymer) [4]: significantly accelerates | exonucleotidase activity of PARG (liberation of ADP-ribose) (purified PARG; 6 mM ATP, long chain polymers as substrate, FIG. 6): activation | acceleration of decay of longer ADP-ribose oligomers by PARG (purified PARG; long-chain PAR (average chain length 50 ADPR), PARG 15 mU/assay, FIG. 5): accelerated | acceleration of degradation of short ADP-ribose oligomers by PARG (purified PARG; short-chain PAR, PARG 15 mU/assay, FIG. 5): not accelerated | inhibitory action of ATP on PARP-1 enzymatic activity [5]: abolished

O=c1ccc2c(I)c(O)ccc2o1 [drawing 20]
symptoms of inflammation (inflammation): markedly reduced
